According to PubChem BioAssay (NCI):
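Following 48 hours of exposure in 96-well plates, responses at five concentrations were used to interpolate endpoints linearly. GI50 = concentration required for 50% inhibition of growth. TGI is the concentration that stops growth completely.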

How the values were obtained:
Experiment in all cases: inhibition of tumour cell growth, NCI panel, 48 h
HT29 colon = test system: HT29 colon
IGROV1 ovarian = test system: IGROV1 ovarian
MALME-3M melanoma = test system: MALME-3M melanoma
EKVX NSCLC = test system: EKVX NSCLC
KM12 colon = test system: KM12 colon
NCI-H460 lung = test system: NCI-H460 lung
786-0 renal = test system: 786-0 renal
SK-MEL-5 melanoma = test system: SK-MEL-5 melanoma
PC-3 prostate = test system: PC-3 prostate
K-562 leukemia = test system: K-562 leukemia
SK-MEL-2 melanoma = test system: SK-MEL-2 melanoma
RXF 393 renal = test system: RXF 393 renal
MDA-MB-435 = test system: MDA-MB-435
HOP-62 NSCLC = test system: HOP-62 NSCLC
SF-268 CNS = test system: SF-268 CNS
NCI-H226 lung = test system: NCI-H226 lung
LOX IMVI melanoma = test system: LOX IMVI melanoma
ACHN renal = test system: ACHN renal
MDA-N = test system: MDA-N
T-47D breast = test system: T-47D breast
A549 NSCLC = test system: A549 NSCLC
SF-295 CNS = test system: SF-295 CNS
HCT-15 colon = test system: HCT-15 colon
SW-620 colon = test system: SW-620 colon
COLO 205 colon = test system: COLO 205 colon
DU-145 prostate = test system: DU-145 prostate
CCRF-CEM leukemia = test system: CCRF-CEM leukemia
M14 melanoma = test system: M14 melanoma
HOP-92 NSCLC = test system: HOP-92 NSCLC
NCI-H522 lung = test system: NCI-H522 lung
U251 CNS = test system: U251 CNS
RPMI-8226 leukemia = test system: RPMI-8226 leukemia
UO-31 renal = test system: UO-31 renal
MCF7 breast = test system: MCF7 breast
TK-10 renal = test system: TK-10 renal
SN12C renal = test system: SN12C renal
UACC-257 melanoma = test system: UACC-257 melanoma
SF-539 CNS = test system: SF-539 CNS
A498 renal = test system: A498 renal
SK-MEL-28 melanoma = test system: SK-MEL-28 melanoma
NCI-H23 lung = test system: NCI-H23 lung
MOLT-4 leukemia = test system: MOLT-4 leukemia
SR leukemia = test system: SR leukemia
OVCAR-3 ovarian = test system: OVCAR-3 ovarian
SNB-75 CNS = test system: SNB-75 CNS
NCI/ADR-RES ovarian = test system: NCI/ADR-RES ovarian
HL-60(TB) leukemia = test system: HL-60(TB) leukemia
SK-OV-3 ovarian = test system: SK-OV-3 ovarian
MDA-MB-231 breast = test system: MDA-MB-231 breast
SNB-19 CNS = test system: SNB-19 CNS
HCC-2998 colon = test system: HCC-2998 colon
OVCAR-8 ovarian = test system: OVCAR-8 ovarian
HCT-116 colon = test system: HCT-116 colon
BT-549 breast = test system: BT-549 breast
UACC-62 melanoma = test system: UACC-62 melanoma
OVCAR-4 ovarian = test system: OVCAR-4 ovarian
CAKI-1 renal = test system: CAKI-1 renal
OVCAR-5 ovarian = test system: OVCAR-5 ovarian
HS 578T breast = test system: HS 578T breast

COc1ccc2nc3cccc([N+](=O)[O-])c3c(NCCNCCO)c2c1
GI50 (HT29 colon): 0.012 µM
TGI (HT29 colon): 0.0991 µM
GI50 (IGROV1 ovarian): 0.0173 µM
TGI (IGROV1 ovarian): 0.0717 µM
GI50 (MALME-3M melanoma): 0.025 µM
TGI (MALME-3M melanoma): 0.124 µM
GI50 (EKVX NSCLC): 0.104 µM
TGI (EKVX NSCLC): 0.426 µM
GI50 (KM12 colon): 0.06 µM
TGI (KM12 colon): 0.25 µM
GI50 (NCI-H460 lung): 0.0114 µM
TGI (NCI-H460 lung): 0.102 µM
GI50 (786-0 renal): 0.0212 µM
TGI (786-0 renal): 0.102 µM
GI50 (SK-MEL-5 melanoma): 0.0113 µM
TGI (SK-MEL-5 melanoma): 0.0258 µM
TGI (PC-3 prostate): 0.13 µM
GI50 (K-562 leukemia): 0.0153 µM
TGI (K-562 leukemia): 0.121 µM
GI50 (SK-MEL-2 melanoma): 0.0167 µM
TGI (SK-MEL-2 melanoma): 0.0344 µM
GI50 (RXF 393 renal): 0.0187 µM
TGI (RXF 393 renal): 0.0474 µM
GI50 (MDA-MB-435): 0.0256 µM
TGI (MDA-MB-435): 0.0903 µM
GI50 (HOP-62 NSCLC): 0.0352 µM
TGI (HOP-62 NSCLC): 0.169 µM
GI50 (SF-268 CNS): 0.0184 µM
TGI (SF-268 CNS): 0.0925 µM
GI50 (NCI-H226 lung): 0.0522 µM
TGI (NCI-H226 lung): 0.34 µM
GI50 (LOX IMVI melanoma): 0.0184 µM
TGI (LOX IMVI melanoma): 0.0721 µM
GI50 (ACHN renal): 0.0159 µM
TGI (ACHN renal): 0.0701 µM
GI50 (MDA-N): 0.037 µM
TGI (MDA-N): 0.156 µM
GI50 (T-47D breast): 0.0813 µM
TGI (T-47D breast): 0.619 µM
GI50 (A549 NSCLC): 0.0274 µM
TGI (A549 NSCLC): 0.119 µM
GI50 (SF-295 CNS): 0.0238 µM
TGI (SF-295 CNS): 0.188 µM
GI50 (HCT-15 colon): 0.206 µM
GI50 (SW-620 colon): 0.0198 µM
TGI (SW-620 colon): 0.61 µM
GI50 (COLO 205 colon): 0.0137 µM
TGI (COLO 205 colon): 0.0545 µM
GI50 (DU-145 prostate): 0.0104 µM
TGI (DU-145 prostate): 0.746 µM
GI50 (CCRF-CEM leukemia): 0.024 µM
TGI (CCRF-CEM leukemia): 0.173 µM
GI50 (M14 melanoma): 0.0198 µM
TGI (M14 melanoma): 0.0534 µM
GI50 (HOP-92 NSCLC): 0.023 µM
TGI (HOP-92 NSCLC): 0.0649 µM
TGI (NCI-H522 lung): 0.0146 µM
GI50 (U251 CNS): 0.0226 µM
TGI (U251 CNS): 0.155 µM
GI50 (RPMI-8226 leukemia): 0.0198 µM
TGI (RPMI-8226 leukemia): 0.111 µM
GI50 (UO-31 renal): 0.106 µM
TGI (UO-31 renal): 0.336 µM
GI50 (MCF7 breast): 0.0102 µM
TGI (MCF7 breast): 0.1 µM
GI50 (TK-10 renal): 0.0291 µM
TGI (TK-10 renal): 0.272 µM
GI50 (SN12C renal): 0.0468 µM
TGI (SN12C renal): 0.306 µM
GI50 (UACC-257 melanoma): 0.0518 µM
TGI (UACC-257 melanoma): 0.189 µM
GI50 (SF-539 CNS): 0.0433 µM
TGI (SF-539 CNS): 0.186 µM
GI50 (A498 renal): 0.0262 µM
TGI (A498 renal): 0.0709 µM
GI50 (SK-MEL-28 melanoma): 0.102 µM
TGI (SK-MEL-28 melanoma): 0.352 µM
GI50 (NCI-H23 lung): 0.104 µM
TGI (NCI-H23 lung): 2.7 µM
GI50 (MOLT-4 leukemia): 0.0207 µM
TGI (MOLT-4 leukemia): 0.229 µM
GI50 (SR leukemia): 0.0167 µM
TGI (SR leukemia): 3.28 µM
GI50 (OVCAR-3 ovarian): 0.0265 µM
TGI (OVCAR-3 ovarian): 0.0667 µM
GI50 (SNB-75 CNS): 0.0367 µM
TGI (SNB-75 CNS): 0.151 µM
GI50 (NCI/ADR-RES ovarian): 0.66 µM
TGI (NCI/ADR-RES ovarian): 6.7 µM
GI50 (HL-60(TB) leukemia): 0.0212 µM
TGI (HL-60(TB) leukemia): 4.14 µM
GI50 (SK-OV-3 ovarian): 0.0459 µM
TGI (SK-OV-3 ovarian): 0.388 µM
GI50 (MDA-MB-231 breast): 0.411 µM
TGI (MDA-MB-231 breast): 8.25 µM
GI50 (SNB-19 CNS): 0.13 µM
TGI (SNB-19 CNS): 0.636 µM
GI50 (HCC-2998 colon): 0.0417 µM
TGI (HCC-2998 colon): 0.206 µM
GI50 (OVCAR-8 ovarian): 0.013 µM
TGI (OVCAR-8 ovarian): 0.151 µM
GI50 (HCT-116 colon): 0.0196 µM
TGI (HCT-116 colon): 0.753 µM
GI50 (BT-549 breast): 0.051 µM
TGI (BT-549 breast): 0.173 µM
GI50 (UACC-62 melanoma): 0.0162 µM
TGI (UACC-62 melanoma): 0.0397 µM
GI50 (OVCAR-4 ovarian): 0.0199 µM
TGI (OVCAR-4 ovarian): 0.0515 µM
GI50 (CAKI-1 renal): 0.0396 µM
TGI (CAKI-1 renal): 0.502 µM
GI50 (OVCAR-5 ovarian): 0.0327 µM
TGI (OVCAR-5 ovarian): 0.185 µM
GI50 (HS 578T breast): 0.0501 µM
TGI (HS 578T breast): 0.361 µM

CC(C)CSCC1OC(n2cnc3c(N)nccc32)C(O)C1O (centres undefined)
TGI (HT29 colon): > 100 µM
TGI (IGROV1 ovarian): > 100 µM
TGI (MALME-3M melanoma): > 100 µM
TGI (EKVX NSCLC): > 100 µM
TGI (KM12 colon): > 100 µM
TGI (NCI-H460 lung): > 100 µM
TGI (786-0 renal): > 100 µM
TGI (SK-MEL-5 melanoma): > 100 µM
TGI (PC-3 prostate): > 100 µM
TGI (K-562 leukemia): > 100 µM
TGI (SK-MEL-2 melanoma): > 100 µM
TGI (RXF 393 renal): > 100 µM
TGI (MDA-MB-435): > 100 µM
TGI (HOP-62 NSCLC): > 100 µM
TGI (SF-268 CNS): > 100 µM
TGI (NCI-H226 lung): > 100 µM
TGI (LOX IMVI melanoma): > 100 µM
TGI (ACHN renal): > 100 µM
TGI (MDA-N): > 100 µM
TGI (T-47D breast): > 100 µM
TGI (A549 NSCLC): > 100 µM
TGI (SF-295 CNS): > 100 µM
TGI (HCT-15 colon): > 100 µM
TGI (SW-620 colon): > 100 µM
TGI (COLO 205 colon): > 100 µM
TGI (DU-145 prostate): > 100 µM
TGI (CCRF-CEM leukemia): > 100 µM
TGI (M14 melanoma): > 100 µM
TGI (HOP-92 NSCLC): > 100 µM
TGI (NCI-H522 lung): > 100 µM
TGI (U251 CNS): > 100 µM
TGI (RPMI-8226 leukemia): > 100 µM
TGI (UO-31 renal): > 100 µM
TGI (MCF7 breast): > 100 µM
TGI (TK-10 renal): > 100 µM
TGI (SN12C renal): > 100 µM
TGI (UACC-257 melanoma): > 100 µM
TGI (SF-539 CNS): > 100 µM
TGI (A498 renal): > 100 µM
TGI (SK-MEL-28 melanoma): > 100 µM
TGI (NCI-H23 lung): > 100 µM
TGI (MOLT-4 leukemia): > 100 µM
TGI (SR leukemia): > 100 µM
TGI (OVCAR-3 ovarian): > 100 µM
TGI (SNB-75 CNS): > 100 µM
TGI (NCI/ADR-RES ovarian): > 100 µM
TGI (HL-60(TB) leukemia): > 100 µM
TGI (SK-OV-3 ovarian): > 100 µM
TGI (MDA-MB-231 breast): > 100 µM
TGI (SNB-19 CNS): > 100 µM
TGI (HCC-2998 colon): > 100 µM
TGI (OVCAR-8 ovarian): > 100 µM
TGI (HCT-116 colon): > 100 µM
TGI (BT-549 breast): > 100 µM
TGI (UACC-62 melanoma): > 100 µM
TGI (OVCAR-4 ovarian): > 100 µM
TGI (CAKI-1 renal): > 100 µM
TGI (OVCAR-5 ovarian): > 100 µM
TGI (HS 578T breast): > 100 µM
